Data on four compounds can be found in patent US20240101599A1, “PEPTIDE, CELL GROWTH PROMOTER, PROTEIN PRODUCTION PROMOTER, CULTURE MEDIUM, CELL GROWTH METHOD USING PEPTIDE, AND PROTEIN PRODUCTION METHOD USING PEPTIDE” (Maruhachi Muramatsu, Inc., priority 2020, published 2024).

Peptide text beside a SMILES is read from it.

Assay [1] relates to CHO-K1. Briefly: Relationship between concentration of each peptide solution and viable cell count (absorbance). In kind it is cell-based. The conditions noted are these: for Absorbance (450 nm): 5 days, MEMα without FBS, n = 3 average, 0 mM = 0.0000; for cell growth promotion, order of the peptides: in words, promoted in the order GEK, DGP, AGK, GPP, GGP, AEK, AGG, ASN, EGK (strongest first). How it is done: Peptides having the sequences of Gly-Glu-Lys (GEK), Asp-Gly-Pro (DGP), Ala-Gly-Lys (AGK), Gly-Pro-Pro (GPP), Gly-Gly-Pro (GGP), Ala-Glu-Lys (AEK), Ala-Gly-Gly (AGG), Ala-Ser-Asn (ASN), and Glu-Gly-Lys (EGK), and Gly-Gly-Gly (GGG) are synthesized to prepare each of peptide solutions at 10-fold concentrations shown in Tables 1 to 10.
A cell suspension prepared such that CHO-K1 (RI KEN BioResource Research Center, cell number: RCB2330) was at 3×10^4 cells/mL was seeded in a 96-well plate at 100 μL/well and cultured in an incubator at 37° C. and 5% CO2 for 24 hours. As a culture medium, an MEMα culture medium (Gibco) containing 10% FBS was used.
After removing the culture medium from each well and washing with the MEMα culture medium (100 μL), 90 μL of a new MEMa culture medium was dispensed into each well, and each peptide solution (10 μL) was added (total 100 μL/well) such that final concentrations were within a range of 0 mM to 5 mM as shown in Tables 1 to 10 to perform culture for 5 days. A similar culture test was performed using a system containing neither peptide nor FBS as a comparative sample. After culturing for 5 days, 10 μL/well of a viable cell count measurement reagent SF (Nacalai Tesque Inc.) was added, and a color reaction was carried out in an incubator at 37° C. and 5% CO2 for 2 hours to measure an absorbance at 450 nm with a plate reader. A reference wavelength was 630 nm. It was confirmed that the absorbance at 450 nm correlated with the cell number.
The above preparation, culture, and measurement were performed with n=3, and Tables 1 to 10 and FIGS. 1 to 10 show the absorbance at the concentration of each peptide solution.

The test system of assay [2] is CHO-K1. Briefly: Cell growth test of each peptide on coating agent for 5 days. In kind it is cell-based. Also on record: Viability, 1 / Viability, 2 / Viability, 3 / Viability, Mean: unit not given here. The conditions noted are these: 2.0 mM Ala-Gly-Lys, 2.1 mM Gly-Glu-Lys, 2.5 mM Gly-Gly-Gly, poly-L-lysine coating; for Cells cell count, Mean / Viability, Mean: mean n=3, 2.2 mM Asp-Gly-Pro; for Cells cell count, 1 / Viability, 1: replicate 1, 2.2 mM Asp-Gly-Pro; for Cells cell count, 2 / Viability, 2: replicate 2, 2.2 mM Asp-Gly-Pro; for Cells cell count, 3 / Viability, 3: replicate 3, 2.2 mM Asp-Gly-Pro. As for the experimental part: Peptides having the sequences of Asp-Gly-Pro (DGP), Ala-Gly-Lys (AGK), Gly-Glu-Lys (GEK), and Gly-Gly-Gly (GGG) were synthesized to prepare each peptide solution such that the concentration was a concentration at which the cell number increased the most within a range of 0 mM to 5 mM. In other words, Asp-Gly-Pro (DGP) was adjusted to 22 mM, Ala-Gly-Lys (AGK) was adjusted to 20 mM, Gly-Glu-Lys (GEK) was adjusted to 21 mM, and Gly-Gly-Gly (GGG) was adjusted to 25 mM, and an amount of 1/10 of the total culture medium volume was added to each well immediately before the cell culture test such that final concentrations were 2.2 mM, 2.0 mM, 2.1 mM, and 2.5 mM, respectively. Poly-L-lysine (Peptide Institute, Inc., Poly-L-Lysine Hydrochloride, code: 3075) was prepared to 0.1 mg/mL, and 200 μL was dispensed into each well of a 24-well plate, which was left to stand in an incubator at 37° C. for 2 hours. After removing the residual liquid with an aspirator, rinsing was performed with distilled water, irradiation was performed with a UV lamp in a clean bench without a lid, and drying was performed overnight to sterilize. A cell suspension prepared such that CHO-K1 (RIKEN BioResource Research Center, cell number: RCB2330) was at 4×10^4 cells/mL was seeded in each well of a 24-well plate at 500 μL/well and cultured in an incubator at 37° C. and 5% CO2 for 24 hours. As a culture medium, an MEMα culture medium (Gibco) containing 10% FBS was used.
After removing the culture medium from each well and washing with the MEMα culture medium (500 μL), 450 μL of a new MEMα culture medium was dispensed into each well, and each peptide solution (50 μL) was added (total 500 μL/well) to perform culture for 5 days. The cells were recovered to count the cell number. A similar culture test was performed using a system containing neither peptide nor FBS as a comparative sample.
The culture medium in each well was recovered in a 1.5 mL tube to be rinsed with 200 μL of MEMα, and the rinsed liquid was also recovered in the same 1.5 mL tube. Thereafter, 100 μL of trypsin was added and incubated for 3 minutes. After rinsing with 300 μL of MEMα containing 10% FBS, the rinsed liquid was also recovered in the same 1.5 mL tube. After rinsing again with 200 μL of MEMα containing 10% FBS, the rinsed liquid was also recovered in the same 1.5 mL tube.
A centrifugation operation was performed on the cells recovered in the 1.5 mL tube. The centrifugation conditions were 1,000 rpm, 10 minutes, and 4° C.
The supernatant was removed, and 300 μL of Cold PBS (phosphate buffered saline) was added to perform a centrifugation operation under the same conditions. The present operation was repeated twice.
Suspension was carried out with 100 μL of Binding Buffer, and 2 μL of propidium iodide (PI) was added and stirred in the tube to cause a reaction for 15 minutes at room temperature and with light shielding. Thereafter, the viable cell count and the cell viability were measured with a flow cytometer.
The above preparation, culture, and measurement were performed with n=3. Table 15 and FIG. 15 show the viable cell count in each peptide solution, and Table 16 and FIG. 16 show the cell viability in each peptide solution.

For `C[C@H](N)C(=O)NCC(=O)N[C@@H](CCCCN)C(=O)O` [AGK, Ala-Gly-Lys] (H-Ala-Gly-Lys-OH; N-terminus and C-terminus assumed), in the assay with CHO-K1 [1] (0.123 mM peptide), the “Absorbance (450 nm)” value was 0.0180. Besides, the “Absorbance (450 nm)” value in the assay on CHO-K1 [1] (0.247 mM peptide) amounted to 0.1440. In addition, the “Absorbance (450 nm)” value in the assay on CHO-K1 [1] (0.494 mM peptide) was 0.3360. Moreover, in the assay with CHO-K1 [1] (0.99 mM peptide), the “Absorbance (450 nm)” value came to 0.5380. In addition, the “Absorbance (450 nm)” value in the assay on CHO-K1 [1] (1.97 mM peptide) came to 0.6613. Moreover, the “Absorbance (450 nm)” value with CHO-K1 [1] (3.95 mM peptide) is listed as 0.4693. Besides, in the assay with CHO-K1 [1], the “cell growth promotion, order of the peptides” value (“cell growth promotion, order” below) is reported as “cell growth was promoted”. Also, in the assay with CHO-K1 [2], the “Cells cell count, Mean” value was 2.6217 ×10^4; the “Viability, Mean” value was 25.0; the “Cells cell count, 1” value is on record as 2.6860 ×10^4; the “Viability, 1” value stood at 26.4. Further, in the assay on CHO-K1 [2], the “Cells cell count, 2” value was 3.0605 ×10^4; the “Viability, 2” value came to 26.4; the “Cells cell count, 3” value is 2.1185 ×10^4; the “Viability, 3” value is recorded as 22.1.
Turning to `NCCCC[C@H](NC(=O)[C@H](CCC(=O)O)NC(=O)CN)C(=O)O` [GEK, Gly-Glu-Lys] (H-Gly-Glu-Lys-OH; N-terminus and C-terminus assumed), the “Absorbance (450 nm)” value in the assay with CHO-K1 [1] (0.128 mM peptide) is recorded as −0.0903. Moreover, the “Absorbance (450 nm)” value in the assay with CHO-K1 [1] (0.257 mM peptide) is 0.0657. Also, the “Absorbance (450 nm)” value in the assay on CHO-K1 [1] (0.512 mM peptide) is recorded as 0.3020. Also, the “Absorbance (450 nm)” value in the assay with CHO-K1 [1] (1.02 mM peptide) worked out at 0.6377. In addition, the “Absorbance (450 nm)” value with CHO-K1 [1] (2.05 mM peptide) was 1.0050. Further, the “Absorbance (450 nm)” value in the assay on CHO-K1 [1] (4.10 mM peptide) is 0.5757. The “cell growth promotion, order” value in the assay with CHO-K1 [1] was “cell growth was promoted”. Also, in the assay with CHO-K1 [2], the “Cells cell count, Mean” value is 16.5830 ×10^4; the “Viability, Mean” value worked out at 90.3; the “Cells cell count, 1” value is recorded as 15.7190 ×10^4; the “Viability, 1” value was 90.2. Also, in the assay with CHO-K1 [2], the “Cells cell count, 2” value was 16.9875 ×10^4; the “Viability, 2” value is on record as 90.3; the “Cells cell count, 3” value was 17.0425 ×10^4; the “Viability, 3” value is reported as 90.5.
As for Asp-Gly-Pro [DGP], the “Absorbance (450 nm)” value in the assay on CHO-K1 [1] (0.138 mM peptide) was 0.0957. For the same compound, in the assay with CHO-K1 [1] (0.278 mM peptide), the “Absorbance (450 nm)” value amounted to 0.2464. Moreover, the “Absorbance (450 nm)” value with CHO-K1 [1] (0.555 mM peptide) is 0.4127. Besides, in the assay on CHO-K1 [1] (1.11 mM peptide), the “Absorbance (450 nm)” value is recorded as 0.5617. Further, the “Absorbance (450 nm)” value with CHO-K1 [1] (2.22 mM peptide) came to 0.7657. Moreover, the “Absorbance (450 nm)” value in the assay with CHO-K1 [1] (4.44 mM peptide) is given as 0.4004. Also, the “cell growth promotion, order” value with CHO-K1 [1] was “cell growth was promoted”. Moreover, in the assay on CHO-K1 [2], the “Cells cell count, Mean” value was 14.9353 ×10^4; the “Viability, Mean” value is 89.6; the “Cells cell count, 1” value was 15.8220 ×10^4; the “Viability, 1” value is reported as 91.5. Moreover, in the assay on CHO-K1 [2], the “Cells cell count, 2” value is reported as 14.8590 ×10^4; the “Viability, 2” value turned out to be 91.2; the “Cells cell count, 3” value is on record as 14.1250 ×10^4; the “Viability, 3” value was 86.0.
Regarding Gly-Pro-Pro [GPP], the “Absorbance (450 nm)” value in the assay on CHO-K1 [1] (0.137 mM peptide) was 0.1163; in the assay on CHO-K1 [1] (0.276 mM peptide) it was 0.2303; in the assay on CHO-K1 [1] (0.550 mM peptide) it was 0.4117; in the assay with CHO-K1 [1] (1.10 mM peptide) it was 0.6443; in the assay on CHO-K1 [1] (2.20 mM peptide), 0.5700; in the assay with CHO-K1 [1] (4.40 mM peptide), 0.3620. Further, the “cell growth promotion, order” value with CHO-K1 [1] is “cell growth was promoted”.
